The source of these data is patent US20240109855A1, “ANTI-QUORUM SENSING, ANTI-BIOFILM, AND INFLAMMATION ATTENUATING COMPOUNDS, COMPOSITIONS, AND METHODS OF USING SAME” (priority 2021, published 2024).

Data set [1] has as its system Agrobacterium tumefaciens (KYC55). Put plainly: Quorum sensing inhibition test with bio-reporter KYC55 (TLC overlay). On Degree of QSI of KYC55: key: −: no inhibition; +: low inhibition; ++: medium inhibition; +++: strong inhibition. On Degree of quorum sensing inhibition (QSI), KYC55: key: −: no inhibition; +: low inhibition; ++: medium inhibition; +++: strong inhibition. Format: cell-based. The following applies: for Degree of QSI of KYC55: Table 1, coumaperine derivatives, 40 mM in ~20 μL acetonitrile dried on TLC plate, overnight, color intensity; for QSI activity against KYC55, in words: running text. The protocol: (§1) TLC preparation: all derivatives were dissolved in 100% acetonitrile to a concentration of 40 mM. Then placed 20 μlon the same spot on the TLC and let the solvent evaporate before use. CV026: few colonies were transferred to liquid LB (Lenox) for overnight incubation at 30° C. in a 45 degree in orbital shaker. At the O.D. 0.8 3 ml of the starter was added to preheated soft LB agar containing 500 nM of 3-oxo-C6 (Sigma-Aldrich). The mixture was then loaded on the TLC in a glass plate for O.N. incubation in 30° C. The next day inhibition zone was measured, while QS is taking place bacteria produce purple pigment, and when QS is inhibited no pigment is produced. KYC55 (pJZ372) (pJZ384) (pJZ410): 20 μl from the frozen stock into 25 ml AT media (AT buffer×20: 1.57 M KH2PO4 pH=7.3. AT salts mix×20: 300 mM (NH4)2SO4, 13 mM MgSO4, 1.4 mM CaCl2, 0.4 mM FeSO4·7H2O, 0.26 mM MnSO4·H2O. AT media: 50 ml×20 AT-buffer, 50 ml×20 AT-salts, 10 ml 50% (w/v) glucose, add 890 ml to final volume of 1 liter.) For O.N. at 30° C. in an orbital shaker. Into preheated water agar with 25 ml AT-buffer, and 60 μg/ml X-gal and 5 nM 3-oxo-c8 (both from Sigma-Aldrich) 25 ml of the starter was added. Then, that mixture was loaded on the TLC in glass plate for O.N. incubation in 30° C. The next day the inhibition zone was measured. The bacteria produce blue pigment during QS and when QS is inhibited no pigment is produced. KYC55 (pJZ372) (pJZ384) (pJZ410) preservation in tetracycline (1 μg/ml), spectinomycin (100 μg/ml), gentamicin (100 μg/ml) (all antibiotics from Sigma Aldrich) in AT media O.N. then centrifuged and suspend in 15% glycerol frozen and maintained at −80° C.

The test system of data set [2] is Chromobacterium violaceum (CV026). Put plainly: Quorum sensing inhibition test with bio-reporter CV026 (TLC overlay). On Degree of QSI of CV026: key: −: no inhibition; +: low inhibition; ++: medium inhibition; +++: strong inhibition. On Degree of quorum sensing inhibition (QSI), CV026: key: −: no inhibition; +: low inhibition; ++: medium inhibition; +++: strong inhibition. Type of data set: cell-based. The following applies: for Degree of QSI of CV026: Table 1, coumaperine derivatives, 40 mM in ~20 μL acetonitrile dried on TLC plate, overnight, color intensity; for QSI activity against CV026, in words: running text. The protocol: as §1

Data set [3] deals with quorum sensing (CV026 and KYC55). Briefly: Quorum sensing inhibition, overall statement over the bio-reporter bacteria. Format: cell-based. Particulars: running text. The protocol: as §1
All the synthesized compounds were evaluated for quorum sensing inhibition against two bioreporter bacteria strains, Chromobacterium violaceum (CV026) and Agrobacterium tumefaciens (KYC55) and the results are summarized in Table 1.

For data set [4], the system named is gram-positive and gram-negative bacteria. Put plainly: Antibacterial activity, overall statement (diffusion discs test). Type of data set: cell-based. The following applies: running text. As for the experimental part: All derivatives were dissolved in acetonitrile to a final concentration of 40 mM. Twenty (20) μl were loaded onto Whatman filter paper discs and dried. Bacillus subtilis, Staphylococcus aureus, and Acinetobacter baumannii were grown in LB (Lenox) O.N. One hundred (100) μl from the starter culture was plated on LB agar (Miller) dishes. Streptococcus sobrinus, and Streptococcus mutans grown in Brain Heary Infusion (BHI, Himedia) O.N. were similarly plated on BHI agar dishes. Discs were laid and incubated O.N. in 37° C. and the diameter of inhibition of bacterial growth was measured.
The antibacterial activities of derivatives showing QSI are outlined in Table 4. […] Similar to that idea, synthetic derivatives of furanon (product of marine algae) shown in-vivo QSI activity without antibacterial activity followed by immune response of the infected animal. Phenolic compounds decrease QS and virulence in PA01 and Chromobacterium violaceum. There is increasing number of studies, searching for compounds that targeting non-vital processes to combat bacteria.

For the next data set, the system named is L428 cells. Put plainly: in vitro. The protocol:
The human Hodgkin's Lymphoma derived L428 cell line was used as a model. The cells were grown in RPMI Medium 1640 with 10% FBS, 1% Glutamine and pen-strep (all from Biological Industries, Israel). […] Thirty thousand (30,000) cells/well were placed in 96-well plates with the coumaperine derivatives at different concentrations or with vehicle (DMSO) at a final volume of 200 μl. The plates were incubated for 48 hrs. at 37° C. and 5% CO2 followed by the addition of 50 μl of the XTT reagent tetrazolium-formazan, (Biological Industries, Israel) was added for 2 hrs. at 37° C., 5% CO2. In living cells, mitochondria […] the tetrazolium-formazan salt, thereby generating a color absorbing product at 450 nm. Absorbance was measured at 450 nm and 650 nm in an enzyme-linked immunosorbent assay (ELISA) plate reader (Multiskan Spectrum, Version 1.2), and recorded. Absorption values at 650 nm were subtracted from the blank and the 450 nm values. The results were normalized to the control (treated with DMSO).
Viability was determined in triplicate in two independent tests. The results were normalized to vehicle (DMSO) treated cells, (100% viability). Mean+SD.

Where [5] appears, read: Table 2, piperlongumine derivatives.

`O=C(/C=C/C=C/C=C/c1ccc2c(c1)OCO2)N1CCCCC1` [CP-155, (2E,4E,6E)-7-(benzo[d][1,3]dioxol-5-yl)-1-(piperidin-1-yl)hepta-2,4,6-trien-1-one]: in data set [1], the “Degree of QSI of KYC55” value is given as “−” and the “QSI activity against KYC55, in words” value is “inactive”. Further, in data set [2], the “Degree of QSI of CV026” value was “−” and the “QSI activity against CV026, in words” value is “inactive”. The “QSI activity overall, in words” value in data set [3] was “do not inhibit”.
As for `O=C(/C=C/C=C/c1ccc2c(c1)OCO2)N1CCCCC1` [CP-262-F1], in data set [1], the “Degree of QSI of KYC55” value is “−” and the “QSI activity against KYC55, in words” value was “inactive”. In data set [2], the “Degree of QSI of CV026” value is reported as “−” and the “QSI activity against CV026, in words” value is “inactive”.
Consider `O=C(/C=C/C=C/c1cc(O)c(O)c(O)c1)N1CCCCC1` [CP-262-F2, (2E,4E)-1-(piperidin-1-yl)-5-(3,4,5-trihydroxyphenyl)penta-2,4-dien-1-one], for which, in data set [1], the “Degree of QSI of KYC55” value was “+” and the “QSI activity against KYC55, in words” value is “low activity”. For the same compound, in data set [2], the “Degree of QSI of CV026” value is given as “−” and the “QSI activity against CV026, in words” value is “inactive”.
Regarding `O=C(/C=C/c1ccc2c(c1)OCO2)N1CCCCC1` [CP-270, (E)-3-(benzo)-1-(piperidin-1-yl)prop-2-en-1-one], in data set [4], the “Antibacterial activity, in words” value is listed as “did not”. Further, in data set [1], the “Degree of QSI of KYC55” value is listed as “+++” and the “QSI activity against KYC55, in words” value is recorded as “highly QSI active”. In data set [2], the “Degree of QSI of CV026” value was “+++” and the “QSI activity against CV026, in words” value is given as “highly QSI active”. Further, in the data set on L428 cells, the “Cytotoxic activity, in words” value was “no cytotoxic activity” and the LC50 result is given as “Non-toxic”.
As to `O=C(/C=C/c1ccc(F)cc1)N1CCCCC1` [CP-273], in data set [1], the “Degree of QSI of KYC55” value is listed as “−” and the “QSI activity against KYC55, in words” value is “inactive”. In addition, in data set [2], the “Degree of QSI of CV026” value is “+” and the “QSI activity against CV026, in words” value is listed as “low activity”. Moreover, the LC50 result in the data set with L428 cells was “Non-toxic”. Also, the “QSI activity overall, in words” value in data set [3] is recorded as “low QSI”.
Turning to `COc1ccc(/C=C/C(=O)N2CCCCC2)cc1` [CP-282], the “Degree of QSI of KYC55” value in data set [1] is given as “++”. In data set [2], the “Degree of QSI of CV026” value is “+++” and the “QSI activity against CV026, in words” value is reported as “more effective against CV026 than KYC55”. Further, in the data set with L428 cells, the “Cytotoxic activity, in words” value is reported as “no cytotoxic activity” and the LC50 entry is “Non-toxic”.
For `COc1ccc(/C=C/C(=O)N2CCCCC2)cc1OC` [CP-289], in data set [1], the “Degree of QSI of KYC55” value was “+++” and the “QSI activity against KYC55, in words” value is recorded as “more effective against KYC55 than CV026”. Also, in data set [2], the “Degree of QSI of CV026” value was “+”. For the same compound, in the data set on L428 cells, the “Cytotoxic activity, in words” value was “no cytotoxic activity” and the LC50 result is “Non-toxic”.
Regarding `COc1cc(/C=C/C(=O)N2CCCCC2)ccc1OC(C)=O` [CP-291], in data set [1], the “Degree of QSI of KYC55” value was “++” and the “QSI activity against KYC55, in words” value is given as “moderate activity”. In data set [2], the “Degree of QSI of CV026” value is “−” and the “QSI activity against CV026, in words” value is “inactive”.
Regarding `COc1cc(/C=C/C(=O)N2CCCCC2)ccc1O` [CP-293], in data set [1], the “Degree of QSI of KYC55” value was “−” and the “QSI activity against KYC55, in words” value is “inactive”. Also, in data set [2], the “Degree of QSI of CV026” value is “−” and the “QSI activity against CV026, in words” value was “inactive”.
In the case of `O=C(CCCCc1ccc2c(c1)OCO2)N1CCCCC1` [CP-THP, Tetrahydro Piperine], in data set [1], the “Degree of QSI of KYC55” value is recorded as “+” and the “QSI activity against KYC55, in words” value is “low activity”. Further, in data set [2], the “Degree of QSI of CV026” value was “+” and the “QSI activity against CV026, in words” value is listed as “low activity”.
On to `COc1cc(/C=C/C(=O)N2CCC=CC2=O)cc(OC)c1OC` [PL, Piperlongumine, reference compound], for which the “Degree of quorum sensing inhibition (QSI), KYC55” value in data set [1] (setting [5]) is on record as “−”. In addition, the “QSI activity against KYC55, in words” value in data set [1] is “inactive”. For the same compound, in data set [2] (setting [5]), the “Degree of quorum sensing inhibition (QSI), CV026” value is on record as “−”. For the same compound, in data set [2], the “QSI activity against CV026, in words” value is “inactive”. The “QSI activity overall, in words” value in data set [3] was “inactive”.
Consider `COc1cc(/C=C/C(=O)OC(=O)/C=C/c2cc(OC)c(OC)c(OC)c2)cc(OC)c1OC` [PL-16A], for which the “Degree of quorum sensing inhibition (QSI), KYC55” value in data set [1] (setting [5]) is reported as “−”. The “QSI activity against KYC55, in words” value in data set [1] was “inactive”. Also, in data set [2] (setting [5]), the “Degree of quorum sensing inhibition (QSI), CV026” value is “−”. In addition, in data set [2], the “QSI activity against CV026, in words” value is “inactive”.
Turning to `CCNC(=O)/C=C/c1cc(OC)c(OC)c(OC)c1` [PL-17, (E)-N-ethyl-3-(3,4,5-trimethoxyphenyl)acrylamide], the “Degree of quorum sensing inhibition (QSI), KYC55” value in data set [1] (setting [5]) is recorded as “−”. Besides, in data set [1], the “QSI activity against KYC55, in words” value is “inactive”. In addition, the “Degree of quorum sensing inhibition (QSI), CV026” value in data set [2] (setting [5]) is “−”. In addition, the “QSI activity against CV026, in words” value in data set [2] was “inactive”.
On to `COc1cc(/C=C/C(=O)NCc2ccccc2)cc(OC)c1OC` [PL-20, (E)-N-benzyl-3-(3,4,5-trimethoxyphenyl)acrylamide], for which the “Degree of quorum sensing inhibition (QSI), KYC55” value in data set [1] (setting [5]) is on record as “−”. For the same compound, the “QSI activity against KYC55, in words” value in data set [1] was “inactive”. In data set [2] (setting [5]), the “Degree of quorum sensing inhibition (QSI), CV026” value is on record as “++”. Moreover, the “QSI activity against CV026, in words” value in data set [2] is on record as “moderate activity”. For the same compound, in the data set with L428 cells, the LC50 result was “Non-toxic”.
In the case of `COc1cc(/C=C/C(=O)N2CCCCC2=O)cc(OC)c1OC` [PL-31], in data set [1] (setting [5]), the “Degree of quorum sensing inhibition (QSI), KYC55” value was “−”. Also, the “QSI activity against KYC55, in words” value in data set [1] is “inactive”. The “Degree of quorum sensing inhibition (QSI), CV026” value in data set [2] (setting [5]) was “+”. For the same compound, the “QSI activity against CV026, in words” value in data set [2] is given as “low activity”.
For the compound `COc1cc(/C=C/C(=O)CC(=O)/C=C/c2ccc(O)c(OC)c2)ccc1O` [curcumin, Curcumin, reference compound], the “Degree of quorum sensing inhibition (QSI), KYC55” value in data set [1] (Table 3, curcumin derivatives) was “−”. The “QSI activity against KYC55, in words” value in data set [1] is “inactive”. Also, the “Degree of quorum sensing inhibition (QSI), CV026” value in data set [2] (Table 3, curcumin derivatives) was “+”. Further, the “QSI activity against CV026, in words” value in data set [2] was “low activity”.
Consider Piperine [reference compound], for which, in data set [1], the “Degree of QSI of KYC55” value was “−” and the “QSI activity against KYC55, in words” value is “inactive”. Moreover, in data set [2], the “Degree of QSI of CV026” value is given as “−” and the “QSI activity against CV026, in words” value was “inactive”. Besides, the “QSI activity overall, in words” value in data set [3] was “do not inhibit”.
